According to patent US20230200394A1, “SELECTIVE HERBICIDES BASED ON SUBSTITUTED ISOXAZOLIN CARBOXAMIDES AND BENOXACOR” (BAYER AKTIENGESELLSCHAFT, priority 2020, published 2023):

System: ZEAMA Sileno
Test: Safener seed treatment; pre-emergence herbicide application, visual scoring of % crop damage in greenhouse
Assay type: in vivo, maize
Settings: for HER effect [%] / HER effect + SAF [%]: crop damage, pre-emergence; for HER effect [%]: herbicide alone (no safener); for HER effect + SAF [%]: seed treated with Benoxacor 0.25 g a.i./kg seed; for Reduction [Difference]: herbicide damage without safener minus with Benoxacor 0.25 g a.i./kg seed; for Reduction [%]: reduction of herbicide damage by Benoxacor 0.25 g a.i./kg seed, relative to damage without safener
Description: Seed Treatment; Pre-Emergence For the safener seed treatment, sufficient seeds of the respective crops (spring wheat, TRZAS; spring barley, HORVS; maize, ZEAMA) were weighed into screw top glass bottles approximately twice the volume of the seeds. The specified safeners, formulated as wettable powder (WP) were weighed out so that the specified rates (g a.i./kg seed) would be obtained, dissolved in water (1 ml water per 10 g of seeds), and added to the seeds to produce a slurry. The bottles were capped and then placed in an overhead shaker (set at medium speed for ca. 60 minutes) so that the seeds were evenly coated with the slurry. The bottles were uncapped and the seeds were either placed on paper and dried for an interval of 3-4 hours prior to sowing, or directly sown. Seeds were placed in sandy loam soil in pots of a diameter of 7-8 cm, and covered with soil. Pre-emergence application of the specified herbicides was done subsequently, on two sets of plants: a) seed treatment with safener, as described above b) no safener treatment The herbicides were formulated as WP and was sprayed onto the soil surface as an aqueous suspension at an equivalent water application rate of 300 l/ha. After application, the test plants were kept in the greenhouse under good growth conditions. At intervals up to 4 weeks after application (=28 days after treatment; DAT), % crop damage observed on the treated plants was scored visually in comparison to control plants that had not received any safener or herbicide treatment. Values in the table below are mean values of at least 2 replicates.

[1] = HER dose 40 g a.i./ha, assessment 26 DAT
[2] = HER dose 40 g a.i./ha, assessment 14 DAT
[3] = HER dose 80 g a.i./ha, assessment 14 DAT

Compound	HER effect [%] [1] [%]	HER effect + SAF [%] (HER dose 40 g a.i./ha, 26 DAT)	Reduction [Difference] (HER dose 40 g a.i./ha, 26 DAT)	Reduction [%] (HER dose 40 g a.i./ha, 26 DAT)	HER effect [%] [2] [%]	HER effect [%] [3] [%]	HER effect [%] (HER dose 80 g a.i./ha, assessment 26 DAT)	HER effect + SAF [%] (HER dose 40 g a.i./ha, 14 DAT)	HER effect + SAF [%] (HER dose 80 g a.i./ha, 14 DAT)	HER effect + SAF [%] (HER dose 80 g a.i./ha, 26 DAT)	Reduction [Difference] (HER dose 40 g a.i./ha, 14 DAT)	Reduction [Difference] (HER dose 80 g a.i./ha, 14 DAT)	Reduction [Difference] (HER dose 80 g a.i./ha, 26 DAT)	Reduction [%] (HER dose 40 g a.i./ha, 14 DAT)	Reduction [%] (HER dose 80 g a.i./ha, 14 DAT)	Reduction [%] (HER dose 80 g a.i./ha, 26 DAT)
C=CC1(C(=O)NC2COC(C(=O)OC)C2)CC(c2cc(F)cc(F)c2)=NO1 (mixture of isomers) [Example 1.68]	95	60	35	37												
C=CC1(C(=O)NC2C=CC(C(=O)OC)C2)CC(c2cc(F)cc(F)c2)=NO1 (stereo not shown) [Example 1.26]	50	5	45	90	25	70	70	5	35	30	20	35	40	80	50	57
CC1(C(=O)NC2C=CC(C(=O)O)C2)CC(c2cc(F)cc(F)c2)=NO1 (stereo not shown) [Example 1.36]					60	83		40	60		20	23		33	28	
